Key:
[1] = Phase IB study: safety (adverse events, bleeding, laboratory, hemodynamics); format: in vivo, human
Description: Primary safety assessments included hemodynamic monitoring to identify clinically significant hypotension using age-specific limits. Adverse event information was collected, and postoperative bleeding was recorded.
Further safety, laboratory, and clinical assessments were performed from baseline to discharge, secondary clinical variables included: postoperative mechanical ventilation, duration of total respiratory support, hemodynamic improvement, postoperative PVT by echocardiogram, serum creatinine and liver enzymes, inotrope score, duration of chest tube usage, length of intensive care unit stay, length of hospitalization and survival.

[2] = Phase IB study: duration of hospitalization; format: in vivo, human; conditions: postoperative until discharge
Description: Duration of hospitalization was calculated as the total number of days postoperative until discharge from the hospital. The average duration of hospitalization was lower in the citrulline than the placebo treatment group, however, the difference was not statistically significant (Table 17).

[3] = Randomized placebo controlled intravenous citrulline study, 77 patients (plasma citrulline target); format: in vivo, human; conditions: citrulline removed by hemofiltration during CPB
Excerpt: An intravenous citrulline study conducted was a randomized, placebo controlled, double blind study with the primary clinical outcome being length of mechanical ventilation postoperatively and secondarily the incidence of postoperative pulmonary hypertension between the 2 treatment groups (citrulline vs placebo).
A total of 77 patients were enrolled at Vanderbilt Children's Hospital. Patients were screened based on the surgical schedule. Based on this schedule, patients undergoing one of the 5 planned cardiac surgeries included in this study were screened (patients undergoing the Norwood procedure are now excluded at the recommendation of the DSMB).

[4] = Hemodynamics (mean arterial blood pressure) after intravenous citrulline in piglets; format: in vivo, Duroc swine; conditions: 600 mg/kg IV
Description: The objective was to assess the safety of intravenous citrulline and its effect on serum arginine levels in piglets. A total of 9 Duroc swine, aged 5-21 days, with a target minimum weight of 4 kg were utilized. All piglets underwent anesthetic induction and tracheostomy. Central lines were placed in the femoral artery and femoral vein and hemodynamics monitored continuously. Citrulline (600 mg/kg IV) was administered to 5 piglets. Saline was given to control animals. Serum amino acids were drawn before and each hour after citrulline administration.

[5] = Phase IB study: plasma citrulline concentrations (Example 10A); format: in vivo, human; conditions: for Number of samples with Citrulline >100 μmol/L / Number of samples with Citrulline ≤100 μmol/L: all samples except baseline
Description: Twenty two (22) patients were enrolled and treated. Patients received an IV citrulline bolus of 150 mg/kg or placebo at the initiation of CPB, followed by the addition of L-citrulline at a concentration of 200 μmol/L or placebo to the filtration or hemoconcentration replacement fluid used during CPB. A citrulline bolus of 20 mg/kg was administered 30 minutes after decannulation from CPB, immediately followed by a 9-mg/kg/hr continuous infusion of citrulline or placebo for 48 hours. Study participation ended at discharge or at Day 28 whichever came first.
Plasma citrulline concentration levels were the primary PK variable; these were assessed in blood samples collected at 7 perioperative time points. Secondary PK variables were concentrations of arginine and nitric oxide (NO) metabolites in the same sample set. PK values were compared between groups.
The citrulline concentration levels during and after the CPB procedure was the PK parameter of interest in this study. The target level in patients treated with intravenous citrulline was a plasma citrulline level of >100 μmol/L during the immediate follow-up period after CPB. Plasma blood collection was performed at 7 perioperative time points: at baseline before surgery, during CPB (post-bolus 1), and after surgery/CPB at the time points 0 hours (pre bolus 2), 6 hours, 12 hours, 24 hours, and 48 hours.

[6] = Phase IB study: postoperative invasive mechanical ventilation; format: in vivo, human; conditions: for patients extubated in the operating room: Site 02
Description: The duration of postoperative invasive mechanical ventilation was derived as the time in hours from separation from cardiopulmonary bypass until endotracheal extubation. If a patient required reintubation within 24 hours after extubation, the reintubation time was added in the main analysis. In a second analysis, the reintubation time was not included.

[7] = Intravenous citrulline dose escalation safety (adverse effects, hypotension); format: in vivo, human
Description: The initial goal was to test the safety and pharmacokinetics of three doses of intravenous citrulline in children undergoing surgical repair of specific congenital heart defects. […] An adverse drop in mean arterial pressure was defined as a greater than a twenty percent decrease from baseline. The baseline postoperative mean arterial blood pressure was calculated as the average of mean arterial blood pressure measurements collected every 5 minutes for the 30 minutes immediately preceding the administration of the postoperative dose or infusion.

[8] = Phase IB study: composite of invasive mechanical ventilation or inotrope use; format: in vivo, human
Excerpt: The cessation of positive pressure ventilation and of inotrope therapy are the two principal determinants of readiness for discharge from the intensive care unit. They were combined as a composite variable to serve as an additional effective surrogate endpoint for the duration of ICU stay.
The composite endpoint comprised the longer of the duration of positive pressure ventilatory support or of inotrope therapy. Since inotrope use was only documented until Hour 48 after surgery (end of study medication treatment), patients with inotrope use continuing until Hour 48 and with mechanical ventilation duration of ≤48 h were censored at this time point. If mechanical ventilation was continued beyond the 48-hour time point, the duration of mechanical ventilation was used in the analysis.

[9] = revised IV protocol, Post Bolus 1
[10] = revised IV protocol, Pre Bolus 2

NC(=O)NCCCC(N)C(=O)O (stereo not drawn) [Citrulline, 2-amino-5-(carbamoylamino)pentanoic acid]
AE hypotension ([1]; citrulline group): 27% | AE tachypnea ([1]; citrulline group): 27% | AE hypertension ([1]; citrulline group, placebo 36%): 27% | AE pleural effusion ([1]; citrulline group, placebo 45%): 36% | patients with at least one treatment-emergent AE ([1]; citrulline group, placebo 73%): 100% | Heart rate ([1]; citrulline vs placebo): consistently higher in the placebo group than the citrulline group | AE leading to death, SAE, AE leading to discontinuation ([1]; in vivo): No AE leading to death, no SAE, and no AE leading to discontinuation | impact on oxygen saturation or systemic arterial blood pressure ([1]; in vivo): no noteworthy impact | post-operative bleeding (length and volume of chest tube drainage) versus placebo ([1]; in vivo): no difference in post-operative bleeding | BUN ([1]; stable in the placebo group, p=0.0111): increased from baseline through to Day 2 | Duration of hospitalization, Diff (CI) placebo vs citrulline [2]: 3.7 (−2.2, 9.7) days | Duration of hospitalization, Median [2]: 5.0 days | Duration of hospitalization, Range [2]: 3.0 to 7.0 days | Duration of hospitalization, Mean ± SD ([2]; N = 11): 4.6 ± 1.21 days | attainment of sustained target plasma citrulline level of 100 μmol/L [3]: did not reach the therapeutic sustained target plasma citrulline level | hemodynamic instability [4]: No hemodynamic instability | Mean Arterial Blood Pressures ([4]; 1 hour post): 67.4 mmHg | Mean Arterial Blood Pressures ([4]; 2 hours post): 64.8 mmHg | Mean Arterial Blood Pressures ([4]; 3 hours post): 62.2 mmHg | Mean Arterial Blood Pressures ([4]; Pre-dose): 67.0 mmHg | Number of samples with Citrulline >100 μmol/L ([5]; Site 01): 25 | Number of samples with Citrulline ≤100 μmol/L ([5]; Site 01): 2 | Number of samples with Citrulline >100 μmol/L ([5]; Site 02): 29 | Number of samples with Citrulline ≤100 μmol/L ([5]; Site 02): 3 | samples with plasma citrulline levels <100 μmol/L ([5]; of the total of 59 samples, excluding baseline samples): 5 | Citrulline concentrations, Mean ± SD ([5]; revised IV protocol, N = 11, Baseline): 200.9 ± 569.89 µmol/L | Citrulline concentrations, Median ([5]; revised IV protocol, Baseline): 32.0 µmol/L | Citrulline concentrations, Mean ± SD ([5]; revised IV protocol, Hour 6): 167.8 ± 117.67 µmol/L | Citrulline concentrations, Median ([5]; revised IV protocol, Hour 6): 138.0 µmol/L | Citrulline concentrations, Mean ± SD ([5]; revised IV protocol, Hour 12): 127.1 ± 16.18 µmol/L | Citrulline concentrations, Median ([5]; revised IV protocol, Hour 12): 125.0 µmol/L | Citrulline concentrations, Mean ± SD ([5]; revised IV protocol, Hour 24): 125.3 ± 38.74 µmol/L | Citrulline concentrations, Median ([5]; revised IV protocol, Hour 24): 114.0 µmol/L | Citrulline concentrations, Mean ± SD [5, 9]: 2405.9 ± 1517.4 µmol/L | Citrulline concentrations, Median [5, 9]: 2577.0 µmol/L | Citrulline concentrations, Mean ± SD [5, 10]: 890.9 ± 1077.5 µmol/L | Citrulline concentrations, Median [5, 10]: 573.0 µmol/L | plasma citrulline levels achieved ([5]; revised IV protocol, target level 100 μmol/L): > 100 µmol/L | Duration of invasive mechanical ventilation, Diff (CI) placebo vs citrulline ([6]; Re-intubation time excluded): 19.5 (1.9, 37.2) hours | Duration of invasive mechanical ventilation, Mean ± SD ([6]; Re-intubation time excluded): 5.1 ± 8.15 h | Duration of invasive mechanical ventilation, Median ([6]; Re-intubation time excluded): 0.0 h | Duration of invasive mechanical ventilation, Range ([6]; Re-intubation time excluded): 0.0 to 22.5 h | Duration of invasive mechanical ventilation, Diff (CI) placebo vs citrulline ([6]; Re-intubation time included): 32.0 (−9.5, 73.4) hours | Duration of invasive mechanical ventilation, Median ([6]; Re-intubation time included): 0.0 h | Duration of invasive mechanical ventilation, Range ([6]; Re-intubation time included): 0.0 to 22.5 h | Duration of invasive mechanical ventilation, Mean ± SD ([6]; Re-intubation time included, N = 11): 5.1 ± 8.15 h | Duration of invasive mechanical ventilation, Mean ± SD ([6]; Re-intubation time included, N = 11, listed as citrulline): 5 h | patients extubated in the operating room ([6]; placebo 2): 6 patients | patients extubated in the operating room ([6]; placebo 33%): 100% | adverse side effects ([7]; 50 mg/kg IV): No adverse side effects were noted | adverse side effects ([7]; 100 mg/kg IV): no adverse side effects were noted | adverse effects ([7]; IV doses 200, 400, and 600 mg/kg): no adverse effects were noted | adverse effects including hypotension ([7]; any of 50, 100, 150 mg/kg IV): no adverse effects including hypotension | adverse side effects ([7]; bolus 150 mg/kg plus continuous infusion 9 mg/kg/hr): No adverse side effects were noted | significant adverse events ([7]; bolus 150 mg/kg plus infusion 9 mg/kg/hour for 48 hours, 9 patients): one significant adverse event but it was not related to the use of IV citrulline | Composite duration of invasive mechanical ventilation or inotrope use, Diff (CI) placebo vs citrulline ([8]; Re-intubation time excluded): 17.7 (−1.0, 36.4) hours | Composite duration of invasive mechanical ventilation or inotrope use, Mean ± SD ([8]; Re-intubation time excluded): 14.3 ± 14.06 h | Composite duration of invasive mechanical ventilation or inotrope use, Median ([8]; Re-intubation time excluded): 15.0 h | Composite duration of invasive mechanical ventilation or inotrope use, Range ([8]; Re-intubation time excluded): 0.0 to 47.0 h | Composite duration of invasive mechanical ventilation or inotrope use, Diff (CI) placebo vs citrulline ([8]; Re-intubation time included): 30.2 (−10.8, 71.1) hours | Composite duration of invasive mechanical ventilation or inotrope use, Mean ± SD ([8]; Re-intubation time included): 14.3 ± 14.06 h | Composite duration of invasive mechanical ventilation or inotrope use, Median ([8]; Re-intubation time included): 15.0 h | Composite duration of invasive mechanical ventilation or inotrope use, Range ([8]; Re-intubation time included): 0.0 to 47.0 h

Reference: US10265286B2, “Sequelae of cardiopulmonary bypass-induced pulmonary injury” (Vanderbilt University, priority 2016, dated 2019)
